What was measured:
VEGF receptors = experiment: Cellular autophosphorylation assay, transfected Chinese hamster ovary cells: VEGF receptors; format: cell-based
Experimental: (§1) In vivo activity requires drugs to enter cells and therefore agents are tested in cellular autophosphorylation assays, using Chinese hamster ovary cells transfected with one of several RTK genes.

[1] = test system: other RTKs including VEGF receptors; experiment: Kinase assay, other RTKs including VEGF receptors; format: biochemical; details: in words
PDGF receptors = experiment: Cellular autophosphorylation assay, transfected Chinese hamster ovary cells: PDGF receptors; format: cell-based
Experimental: as §1

[2] = test system: all other tyrosine kinase and serine/threonine kinases tested; experiment: Kinase assay, all other tyrosine kinase and serine/threonine kinases tested; format: biochemical; details: in words
insulin receptor = experiment: Cellular autophosphorylation assay, transfected Chinese hamster ovary cells: insulin receptor; format: cell-based
Flt-1 = target: T1, Flt-1 (Homo sapiens, UniProt P17948); experiment: Tyrosine kinase assay, phosphorylation of poly(GluTyr) by GST-fusion kinase domain: Flt-1; format: biochemical; details: in words
T1 construct: kinase domains of human VEGF receptors 1 and 2
T1 sequence (P17948 827-1158 limits assumed): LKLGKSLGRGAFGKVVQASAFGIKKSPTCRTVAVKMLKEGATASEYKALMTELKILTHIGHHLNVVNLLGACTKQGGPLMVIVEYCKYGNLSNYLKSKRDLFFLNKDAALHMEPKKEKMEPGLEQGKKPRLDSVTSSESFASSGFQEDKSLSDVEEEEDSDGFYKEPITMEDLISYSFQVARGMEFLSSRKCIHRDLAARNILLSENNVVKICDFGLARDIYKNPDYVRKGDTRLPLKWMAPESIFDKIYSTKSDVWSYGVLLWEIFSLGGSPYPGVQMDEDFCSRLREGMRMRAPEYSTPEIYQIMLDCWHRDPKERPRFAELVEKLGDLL

c-erbB2 = experiment: Cellular autophosphorylation assay, transfected Chinese hamster ovary cells: c-erbB2; format: cell-based
Experimental: as §1

[3] = test system: choroidal neovascularization; experiment: Laser-induced choroidal neovascularization in mice; details: 50 mg/kg/day by gavage
Experimental: Choroidal neovascularization is generated by modification of a previously described technique. […] Three burns of krypton laser photocoagulation (100pm spot size, 0.1 seconds duration, 150 mW) are delivered to each retina using the slit lamp delivery system of a Coherent Model 920 Photocoagulator and a hand held cover slide as a contact lens. Burns are performed in the 9, 12, and 3 o'clock positions of the posterior pole of the retina. Production of a bubble at the time of laser, which indicates rupture of Bruch's membrane, is an important factor in obtaining CNV ^16, so only mice in which a bubble is produced for all three burns are included in the study. Ten mice are randomly assigned to treatment with vehicle alone and 10 mice received vehicle containing 120 μmoles/kg/day of one of the test drugs given orally by gavage. After 14 days, the mice are killed with an overdose of pentobarbital sodium, and their eyes are rapidly removed and frozen in optimal cutting temperature embedding compound (OCT).
After a 10 minute wash in 0.05 M Tris buffer, pH 7.6, slides are developed in Histomark Red (Kirkegaard and Perry) to give a red reaction product, and mounted with Cytoseal (Stephens Scientific, Riverdale, N.J.). Some slides are counterstained with Contrast Blue (Kirkegaard and Perry).
For each lesion, area measurements are made for all sections on which some of the lesion appeared and added together to give the integrated area measurement. Values are averaged to give one experimental value per mouse. A 2-sample t-test for unequal variances is performed to compare the log mean integrated area between treatment and control mice.

[4] = test system: retinal vascular development; experiment: Retinal vascular development in neonatal mice; format: in vivo, mouse (C57/BL6J)
Experimental: Litters of newborn C57/BL6J mice are divided into treatment and control groups which received daily subcutaneous injections of 10 mg/kg of drug or vehicle, respectively. […] The eyes are removed and fixed for 1 hour in 10% phosphate-buffered formalin. The cornea and lens are removed and the entire retina is carefully dissected from the eyecup, radially cut from the edge of the retina to the equator in all 4 quadrants, and flat-mounted in Aquamount with photoreceptors facing upward.

c-Kit = target: T2, c-Kit (Homo sapiens, UniProt P10721); format: cell-based; details: transfected Chinese hamster ovary cells
T2 construct: expressed in transfected cells; host or cells: Chinese hamster ovary cells
Experimental: as §1

RTKs = details: in words; cited from earlier work
[5] = test system: retinal neovascularization; details: pigs; cited from earlier work
retinal blood vessels = details: administration of exogenous VEGF; cited from earlier work

T2 sequence (P10721 26-976): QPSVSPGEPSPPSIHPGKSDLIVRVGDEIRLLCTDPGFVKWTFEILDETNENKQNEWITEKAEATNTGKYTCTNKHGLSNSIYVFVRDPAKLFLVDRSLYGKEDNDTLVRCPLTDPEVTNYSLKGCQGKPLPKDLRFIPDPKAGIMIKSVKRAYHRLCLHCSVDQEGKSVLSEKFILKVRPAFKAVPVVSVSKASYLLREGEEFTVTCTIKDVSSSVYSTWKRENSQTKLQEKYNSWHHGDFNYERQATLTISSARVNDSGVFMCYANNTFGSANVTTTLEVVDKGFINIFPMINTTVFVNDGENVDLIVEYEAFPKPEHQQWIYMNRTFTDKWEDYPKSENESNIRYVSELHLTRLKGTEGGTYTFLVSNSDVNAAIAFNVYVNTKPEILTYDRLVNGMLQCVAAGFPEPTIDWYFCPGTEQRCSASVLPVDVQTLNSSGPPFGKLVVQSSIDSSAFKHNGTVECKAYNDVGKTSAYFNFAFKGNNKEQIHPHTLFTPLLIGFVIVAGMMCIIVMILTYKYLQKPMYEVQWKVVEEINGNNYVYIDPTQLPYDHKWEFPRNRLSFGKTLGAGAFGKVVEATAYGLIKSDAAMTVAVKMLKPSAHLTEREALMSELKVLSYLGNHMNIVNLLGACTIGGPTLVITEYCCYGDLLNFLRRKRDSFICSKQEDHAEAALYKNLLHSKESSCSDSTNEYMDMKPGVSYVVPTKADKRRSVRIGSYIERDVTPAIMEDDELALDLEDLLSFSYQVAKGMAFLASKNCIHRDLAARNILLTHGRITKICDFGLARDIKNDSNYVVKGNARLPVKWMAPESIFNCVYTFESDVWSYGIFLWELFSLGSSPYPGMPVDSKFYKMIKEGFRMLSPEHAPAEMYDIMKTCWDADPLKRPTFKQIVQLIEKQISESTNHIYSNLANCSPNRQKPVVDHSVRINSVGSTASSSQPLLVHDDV

Cc1ccc(NC(=O)c2ccccc2)cc1Nc1nccc(-c2cccnc2)n1 [CGP 53 716]
inhibition of autophosphorylation of VEGF receptors (VEGF receptors): poor inhibitors
inhibition of other RTKs including VEGF receptors [1]: little or no inhibitory activity
inhibition of autophosphorylation of PDGF receptors (PDGF receptors): potent inhibitors

Clc1ccc(Nc2nnc(Cc3ccncc3)c3ccccc23)cc1 [CGP 79787D]
inhibition of phosphorylation by all other kinases tested [2]: poor inhibitor
inhibition of autophosphorylation of VEGF receptors (VEGF receptors): inhibits autophosphorylation
inhibition of autophosphorylation of insulin receptor (insulin receptor): poor inhibitor
inhibition of phosphorylation by the kinase domain of human VEGF receptor 1 (Flt-1): good inhibitor
inhibition of autophosphorylation of c-erbB2 (c-erbB2): poor inhibitor
appearance of overlying retinal vessels ([3]; two weeks after laser): appeared normal
choroidal neovascularization at laser-induced rupture sites of Bruch's membrane ([3]; two weeks after laser): very little if any choroidal neovascularization
integrated area of lectin staining per lesion ([3]; n=5, vehicle 0.0713812±0.0066723 mm^2): 0.01124±0.001483 mm^2
extent of retinal vessels at P7 ([4]; 10 mg/kg daily s.c. from P0, P7): only extended about half way to the periphery
extent of superficial capillary bed at P10 ([4]; 10 mg/kg daily s.c. from P0, P10): has not yet reached the edge of the retina
significance of differences in retinal vascular development versus vehicle ([4]; 10 mg/kg daily s.c., P7 and P10, FIG. 5): highly significant
inhibition of autophosphorylation of c-Kit (c-Kit): inhibits autophosphorylation
inhibition of autophosphorylation of PDGF receptors (PDGF receptors): inhibits autophosphorylation

O=c1c(-c2ccc(O)cc2)coc2cc(O)cc(O)c12 [Genistein, 4',5,7-trihydroxyisoflavone]
inhibition of RTKs (RTKs): relatively weak, nonspecific inhibitor

CN(C)C[C@@H]1CCn2cc(c3ccccc32)C2=C(C(=O)NC2=O)c2cn(c3ccccc23)CCO1 [LY 333531]
inhibition of retinal neovascularization after laser-induced branch vein occlusion [5]: partially inhibited retinal neovascularization

VEGF
hyperoxia-induced regression of retinal blood vessels (retinal blood vessels): prevented

— patent publication US6271233A, “Method for treating ocular neovascular diseases” (priority 1999, dated 2001)
